Results taken from US5714483A, “Antitussive” (TORAY Industries, Inc., priority 1992, dated 1998).

Tests used:
capsaicin-induced cough [1] = assay: Capsaicin-induced cough in rats (60 μM capsaicin), ED50, Example 3; format: in vivo, SD male rats; conditions: Rattus norvegicus, ip, 0.5 h; i.p.; capsaicin 60 μM, 30 minutes after administration; read-out: ED50 (dose at which the number of cough is suppressed to half)
Description: (§1) SD male rats (body weight: 250-350 g) were used under non-anesthesic condition.
(§2) Respiration and cough were measured by plestimography. The body plestimograph used has a plastic cylinder having a diameter of 7.5 cm and a length of 15 cm, and consists of a cylindrical part in which the body of the rat is inserted and a cap part which covers the head. In the upper portion of the cylinder, a vent was formed so as to connect a respiration flow meter. To tightly close the cylinder, a collar made of rubber or celluloid was put on the neck of the rat. In the cap part, an inlet for introducing capsaicin and a ventilating hole were formed. The respiration of the rats was measured by measuring the movement of the thorax due to the respiration in terms of the change in the inner volume of the cylinder by the respiration flow meter. […] This large change is distinguished from the normal respiration and measured by the respiration flow meter. The number of this large change was measured, which is defined as the number of cough.
(§3) Capsaicin (60 μM) was converted to mist by ultrasonic nebulizer and the mist was sent by an artificial respirator into the cap covering the head of the rat through a silicone tube, thereby inducing cough. Capsaicin was transferred by the artificial respirator for inhalation at a dose of 10 ml/time and at a rate of 70 times/min.
The rats were made to inhale capsaicin for 5 minutes at 270 minutes before the administration of the test compound. Induction of cough was confirmed during the inhalation of capsaicin. The rats were made to inhale capsaicin for 5 minutes at 30 minutes after administration of the test compound, and the number of induced cough during this period was measured. The antitussive effect was evaluated in terms of the suppression rate, that is, the ratio of the number of cough after administration of the test compound to the number of cough before administration of the test compound. Capsaicin was dissolved in saline. The test compounds were dissolved in aqueous 10% DMSO solution. In any case, the test compounds were intraperitoneally administered. The effectiveness of each of the test compounds is shown in terms of ED50 value which means the dose at which the number of cough is suppressed to half.

capsaicin-induced cough [2] = assay: Capsaicin-induced cough in rats (30 μM capsaicin), plethysmography, Examples 1 and 2; format: in vivo, SD male rats
Description: as §1, §2
as §3, with “(30” for “(60”, “20” for “10”, “30” for “70”
The rats were made to inhale capsaicin for 5 minutes at 15 minutes before the administration of the test compound. Induction of cough was confirmed during the inhalation of capsaicin. The rats were made to inhale capsaicin for 5 minutes at 15, 60 and 120 minutes after administration of the compound, and the number of induced cough was measured during this period. The antitussive effect was evaluated in terms of the suppression rate, that is, the ratio of the number of cough after administration of the test compound to the number of cough before administration of the compound. The measured suppression rates were compared using Mann Whiteny U-test. If there is a difference at significant level (P<0.05), the difference was evaluated as significant. Capsaicin was dissolved in 10% ethanol and 10% Tween 80 and diluted with saline. The test compound was dissolved in saline. In any case, the test compound was intraperitoneally administered.

In the case of `COc1ccc2c3c1O[C@H]1c4[nH]c5ccccc5c4C[C@@]4(O)[C@@H](C2)N(CC2CC2)CC[C@]314` [Compound 7, 17-cyclopropylmethyl-6,7-didehydro-4,5α-epoxy-14β-hydroxy-3-methoxy-6,7,2',3'-indolomorphinan], the ED50 (capsaicin-induced cough [1]) is reported as 0.0639 mg/kg.
`Oc1ccc2c3c1O[C@H]1c4nc5ccccc5cc4C[C@@]4(O)[C@@H](C2)N(CC2CC2)CC[C@]314` [Compound 4, 17-cyclopropylmethyl-6,7-didehydro-4,5α-epoxy-3,14β-dihydroxy-6,7,2',3'-quinolinomorphinan] was tested, and the ED50 (capsaicin-induced cough [1]) was 0.984 mg/kg.
In the case of `COc1ccc2c3c1O[C@H]1c4[nH]c5c(ccc6cnccc65)c4C[C@@]4(O)[C@@H](C2)N(CC2CC2)CC[C@]314` [Compound 6, 17-cyclopropylmethyl-6,7-didehydro-4,5α-epoxy-14β-hydroxy-3-methoxy-[6',7'-b]-pyrido-6,7,2',3'-indolomorphinan], the ED50 (capsaicin-induced cough [1]) is reported as 0.0413 mg/kg.
With `Oc1ccc2c3c1O[C@H]1c4[nH]c5ccccc5c4C[C@@]4(O)[C@@H](C2)N(CC2CC2)CC[C@]314` [Compound 1, 17-cyclopropylmethyl-6,7-didehydro-4,5α-epoxy-3,14β-dihydroxy-6,7,2',3'-indolomorphinan] the “dose-dependence of antitussive effect” value (capsaicin-induced cough [2]; 0.03 mg/kg to 1 mg/kg, i.p., 15 minutes after administration) was “dose-dependent antitussive effect”, the antitussive effect (capsaicin-induced cough [2]; 1 mg/kg, i.p.) was “a significant antitussive effect was observed” and the “peak of the antitussive effect (time after administration)” value (capsaicin-induced cough [2]; 1 mg/kg, i.p.) was 15 min. For the same molecule, the “antitussive effect at 120 minutes compared with saline group” value (capsaicin-induced cough [2]; 1 mg/kg, i.p., 120 minutes after administration, vs saline group) was “a significant antitussive effect was observed even 120 minutes after the administration” and the “antitussive effect compared with morphine (0.3 mg/kg)” value (capsaicin-induced cough [2]; Compound 1 1 mg/kg vs morphine 0.3 mg/kg, i.p., 15 minutes after administration) was “substantially identical to that by morphine (0.3 mg/kg)”.
For `Oc1ccc2c3c1O[C@H]1c4[nH]c5c6c(ccc5c4C[C@@]4(O)[C@@H](C2)N(CC2CC2)CC[C@]314)CCCC6` [Compound 2, 17-cyclopropylmethyl-6,7-didehydro-4,5α-epoxy-3,14β-dihydroxy-6',7'-cyclohexeno-6,7,2',3'-indolomorphinan], the ED50 (capsaicin-induced cough [1]) was 0.0395 mg/kg.
For `COc1cc(CNC(=O)CCCC/C=C/C(C)C)ccc1O` [capsaicin, reference compound], the “number of cough induced by inhalation of capsaicin” value (capsaicin-induced cough [2]; capsaicin 30 μM mist, 5 min inhalation) was 22.5±1.2 times/5 minutes.
Molecule `Oc1ccc2c3c1O[C@H]1c4[nH]c5c(ccc6cnccc65)c4C[C@@]4(O)[C@@H](C2)N(CC2CC2)CC[C@]314` [Compound 5, 17-cyclopropylmethyl-6,7-didehydro-4,5α-epoxy-3,14β-dihydroxy-[6',7'-b]-pyrido-6,7,2',3'-indolomorphinan] has an ED50 (capsaicin-induced cough [1]) of 0.0797 mg/kg.
